Test results reported in PubChem BioAssay (NCI).
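Each compound was tested at five concentrations against cells in 96-well plates for 48 hours. At the TGI there is no net growth.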

Columns and labels:
Assay in all cases: NCI-60 cell line screen, 48 h
[1] = test system: MCF7 breast
[2] = test system: HCT-15 colon
[3] = test system: SF-295 CNS
[4] = test system: ACHN renal
[5] = test system: SW-620 colon
[6] = test system: HL-60(TB) leukemia
[7] = test system: MOLT-4 leukemia
[8] = test system: HS 578T breast
[9] = test system: OVCAR-5 ovarian
[10] = test system: HCC-2998 colon
[11] = test system: A549 NSCLC
[12] = test system: SN12C renal
[13] = test system: CCRF-CEM leukemia
[14] = test system: SK-MEL-5 melanoma
[15] = test system: NCI-H522 lung
[16] = test system: NCI-H226 lung
[17] = test system: LOX IMVI melanoma
[18] = test system: OVCAR-4 ovarian
[19] = test system: SF-539 CNS
[20] = test system: SNB-19 CNS
[21] = test system: COLO 205 colon
[22] = test system: SK-OV-3 ovarian
[23] = test system: BT-549 breast
[24] = test system: SK-MEL-2 melanoma
[25] = test system: EKVX NSCLC
[26] = test system: HCT-116 colon
[27] = test system: MALME-3M melanoma
[28] = test system: TK-10 renal
[29] = test system: M14 melanoma
[30] = test system: OVCAR-3 ovarian
[31] = test system: 786-0 renal
[32] = test system: DU-145 prostate
[33] = test system: MDA-MB-231 breast
[34] = test system: UACC-257 melanoma
[35] = test system: SNB-75 CNS
[36] = test system: MDA-N
[37] = test system: CAKI-1 renal
[38] = test system: NCI-H23 lung
[39] = test system: HOP-62 NSCLC
[40] = test system: OVCAR-8 ovarian
[41] = test system: HOP-92 NSCLC
[42] = test system: NCI-H460 lung
[43] = test system: T-47D breast
[44] = test system: NCI/ADR-RES ovarian
[45] = test system: UACC-62 melanoma
[46] = test system: SR leukemia
[47] = test system: IGROV1 ovarian
[48] = test system: PC-3 prostate
[49] = test system: U251 CNS
[50] = test system: KM12 colon
[51] = test system: HT29 colon
[52] = test system: UO-31 renal
[53] = test system: SF-268 CNS
[54] = test system: SK-MEL-28 melanoma
[55] = test system: MDA-MB-435
[56] = test system: RPMI-8226 leukemia
[57] = test system: K-562 leukemia
[58] = test system: A498 renal
[59] = test system: RXF 393 renal

OCCCCCCCCCCCOc1ccc(C2OCC3(CC=CCC3)CO2)cc1 (stereo not given)
TGI [1]: 19.6 µM
TGI [2]: 32.3 µM
TGI [3]: 34.7 µM
TGI [4]: 33.3 µM
TGI [5]: 39.1 µM
TGI [6]: 88.7 µM
TGI [7]: > 100 µM
TGI [8]: 40 µM
TGI [9]: 46.3 µM
TGI [10]: 38 µM
TGI [11]: 45.7 µM
TGI [12]: 36.8 µM
TGI [13]: 55.6 µM
TGI [14]: 80.2 µM
TGI [15]: 23.4 µM
TGI [16]: 52.9 µM
TGI [17]: 25.2 µM
TGI [18]: 34 µM
TGI [19]: 45.6 µM
TGI [20]: 43.5 µM
TGI [21]: 46.8 µM
TGI [22]: 37 µM
TGI [23]: 30.9 µM
TGI [24]: > 100 µM
TGI [25]: 23.8 µM
TGI [26]: 29.3 µM
TGI [27]: 43.4 µM
TGI [28]: 32.1 µM
TGI [29]: 26 µM
TGI [30]: 57.3 µM
TGI [31]: 30.5 µM
TGI [32]: 32.6 µM
TGI [33]: 31.4 µM
TGI [34]: 38.2 µM
TGI [35]: 28.2 µM
TGI [36]: 32 µM
TGI [37]: 31.1 µM
TGI [38]: 31.6 µM
TGI [39]: 35.9 µM
TGI [40]: 43.1 µM
TGI [41]: 32.8 µM
TGI [42]: 36.5 µM
TGI [43]: 31 µM
TGI [44]: 36.3 µM
TGI [45]: 32.8 µM
TGI [46]: 17.1 µM
TGI [47]: 33 µM
TGI [48]: 22.8 µM
TGI [49]: 33.2 µM
TGI [50]: 28.7 µM
TGI [51]: 14.8 µM
TGI [52]: 40.9 µM
TGI [53]: 40.9 µM
TGI [54]: 42.4 µM
TGI [55]: 38 µM
TGI [56]: > 100 µM

O=c1c2cc(O)c(O)cc2oc2cc(O)c(C3OC(CO)C(O)C(O)C3O)c(O)c12 (stereo not given)
TGI [1]: > 100 µM
TGI [2]: > 100 µM
TGI [3]: > 100 µM
TGI [4]: > 100 µM
TGI [57]: > 100 µM
TGI [5]: > 100 µM
TGI [6]: > 100 µM
TGI [7]: > 100 µM
TGI [8]: > 100 µM
TGI [9]: > 100 µM
TGI [10]: > 100 µM
TGI [11]: > 100 µM
TGI [13]: > 100 µM
TGI [14]: > 100 µM
TGI [15]: > 100 µM
TGI [16]: > 100 µM
TGI [17]: > 100 µM
TGI [18]: > 100 µM
TGI [19]: > 100 µM
TGI [20]: > 100 µM
TGI [21]: > 100 µM
TGI [22]: > 100 µM
TGI [23]: > 100 µM
TGI [24]: > 100 µM
TGI [25]: > 100 µM
TGI [26]: > 100 µM
TGI [27]: > 100 µM
TGI [28]: > 100 µM
TGI [29]: > 100 µM
TGI [30]: > 100 µM
TGI [31]: > 100 µM
TGI [33]: > 100 µM
TGI [58]: > 100 µM
TGI [34]: > 100 µM
TGI [35]: > 100 µM
TGI [36]: > 100 µM
TGI [37]: > 100 µM
TGI [38]: > 100 µM
TGI [39]: > 100 µM
TGI [40]: > 100 µM
TGI [41]: > 100 µM
TGI [42]: > 100 µM
TGI [43]: > 100 µM
TGI [59]: > 100 µM
TGI [44]: > 100 µM
TGI [45]: > 100 µM
TGI [46]: > 100 µM
TGI [47]: > 100 µM
TGI [48]: > 100 µM
TGI [49]: > 100 µM
TGI [50]: > 100 µM
TGI [51]: > 100 µM
TGI [52]: > 100 µM
TGI [53]: > 100 µM
TGI [54]: > 100 µM
TGI [55]: > 100 µM
TGI [56]: > 100 µM

NS(=O)(=O)c1nnc(NS(=O)(=O)c2ccc(Cl)cc2)s1
TGI [1]: > 100 µM
TGI [2]: > 100 µM
TGI [3]: > 100 µM
TGI [4]: > 100 µM
TGI [57]: > 100 µM
TGI [5]: > 100 µM
TGI [7]: > 100 µM
TGI [8]: > 100 µM
TGI [9]: > 100 µM
TGI [10]: > 100 µM
TGI [11]: > 100 µM
TGI [12]: > 100 µM
TGI [14]: > 100 µM
TGI [15]: > 100 µM
TGI [16]: > 100 µM
TGI [17]: > 100 µM
TGI [18]: > 100 µM
TGI [20]: > 100 µM
TGI [21]: > 100 µM
TGI [22]: > 100 µM
TGI [23]: > 100 µM
TGI [24]: > 100 µM
TGI [25]: > 100 µM
TGI [26]: > 100 µM
TGI [27]: > 100 µM
TGI [28]: > 100 µM
TGI [29]: > 100 µM
TGI [30]: > 100 µM
TGI [31]: > 100 µM
TGI [32]: > 100 µM
TGI [33]: > 100 µM
TGI [58]: > 100 µM
TGI [34]: > 100 µM
TGI [36]: > 100 µM
TGI [37]: > 100 µM
TGI [38]: > 100 µM
TGI [39]: > 100 µM
TGI [40]: > 100 µM
TGI [41]: > 100 µM
TGI [42]: > 100 µM
TGI [43]: > 100 µM
TGI [59]: > 100 µM
TGI [44]: > 100 µM
TGI [45]: > 100 µM
TGI [46]: > 100 µM
TGI [49]: > 100 µM
TGI [50]: > 100 µM
TGI [51]: > 100 µM
TGI [52]: > 100 µM
TGI [53]: > 100 µM
TGI [54]: > 100 µM
TGI [55]: > 100 µM
TGI [56]: > 100 µM

CCCCc1ccc(Nc2nc(Cl)c3ncn(C4CC(Oc5ccc(C)cc5)C(COc5ccc(C)cc5)O4)c3n2)cc1 (stereo not given)
TGI [1]: > 100 µM
TGI [2]: > 100 µM
TGI [3]: > 100 µM
TGI [4]: > 100 µM
TGI [57]: > 100 µM
TGI [5]: > 100 µM
TGI [6]: > 100 µM
TGI [7]: > 100 µM
TGI [8]: > 100 µM
TGI [9]: > 100 µM
TGI [10]: > 100 µM
TGI [11]: > 100 µM
TGI [12]: > 100 µM
TGI [13]: > 100 µM
TGI [14]: > 100 µM
TGI [15]: > 100 µM
TGI [16]: > 100 µM
TGI [17]: > 100 µM
TGI [19]: > 100 µM
TGI [20]: > 100 µM
TGI [21]: > 100 µM
TGI [22]: > 100 µM
TGI [23]: > 100 µM
TGI [24]: > 100 µM
TGI [25]: > 100 µM
TGI [26]: > 100 µM
TGI [27]: > 100 µM
TGI [28]: > 100 µM
TGI [29]: > 100 µM
TGI [30]: > 100 µM
TGI [31]: > 100 µM
TGI [32]: > 100 µM
TGI [33]: > 100 µM
TGI [58]: > 100 µM
TGI [34]: > 100 µM
TGI [35]: > 100 µM
TGI [36]: > 100 µM
TGI [37]: 30.9 µM
TGI [38]: > 100 µM
TGI [39]: > 100 µM
TGI [40]: > 100 µM
TGI [41]: > 100 µM
TGI [43]: > 100 µM
TGI [59]: > 100 µM
TGI [44]: > 100 µM
TGI [45]: > 100 µM
TGI [46]: > 100 µM
TGI [47]: > 100 µM
TGI [50]: > 100 µM
TGI [51]: > 100 µM
TGI [52]: > 100 µM
TGI [53]: > 100 µM
TGI [55]: > 100 µM
TGI [56]: > 100 µM
